Converted amounts (≈) assume the structure as drawn.
Columns and labels:
JAK3/JAK1 [1] = molecular target: T1, JAK3/JAK1 (Homo sapiens, UniProt P23458+P52333); experiment: Inhibition of JAK1/3-mediated STAT5 phosphorylation in human M07E cells preincubated for 30 mins followed by IL-15 stimulation measured after 15 mins by flow cytometry; assay type: cell-based
JAK3/JAK1 [2] = molecular target: T1, JAK3/JAK1; experiment: Inhibition of JAK1/3-mediated STAT5 phosphorylation in human whole blood incubated for 30 mins followed by IL-2 addition measured after 15 mins by flow cytometry; assay type: tissue-based
[3] = Metabolic stability in human skin S9 fraction measured upto 120 mins by LC-MS analysis; assay type: ADME, subcellular
[4] = Lipophilicity, LogD of compound; assay type: physicochemical; conditions: octanol/water
[5] = molecular target: Tyrosine-protein kinase JAK1 (Homo sapiens, UniProt P23458); experiment: Inhibition of GST-fused JAK1 (866 to 1154 residues)(unknown origin) using FITC-Ahr-KKSRGDYMTMQIG-NH2 peptide as substrate incubated for 30 mins in presence of ATP by caliper microfluidic mobility shift assay
Chain of Tyrosine-protein kinase JAK1 (P23458 whole entry, the tested form may be a part): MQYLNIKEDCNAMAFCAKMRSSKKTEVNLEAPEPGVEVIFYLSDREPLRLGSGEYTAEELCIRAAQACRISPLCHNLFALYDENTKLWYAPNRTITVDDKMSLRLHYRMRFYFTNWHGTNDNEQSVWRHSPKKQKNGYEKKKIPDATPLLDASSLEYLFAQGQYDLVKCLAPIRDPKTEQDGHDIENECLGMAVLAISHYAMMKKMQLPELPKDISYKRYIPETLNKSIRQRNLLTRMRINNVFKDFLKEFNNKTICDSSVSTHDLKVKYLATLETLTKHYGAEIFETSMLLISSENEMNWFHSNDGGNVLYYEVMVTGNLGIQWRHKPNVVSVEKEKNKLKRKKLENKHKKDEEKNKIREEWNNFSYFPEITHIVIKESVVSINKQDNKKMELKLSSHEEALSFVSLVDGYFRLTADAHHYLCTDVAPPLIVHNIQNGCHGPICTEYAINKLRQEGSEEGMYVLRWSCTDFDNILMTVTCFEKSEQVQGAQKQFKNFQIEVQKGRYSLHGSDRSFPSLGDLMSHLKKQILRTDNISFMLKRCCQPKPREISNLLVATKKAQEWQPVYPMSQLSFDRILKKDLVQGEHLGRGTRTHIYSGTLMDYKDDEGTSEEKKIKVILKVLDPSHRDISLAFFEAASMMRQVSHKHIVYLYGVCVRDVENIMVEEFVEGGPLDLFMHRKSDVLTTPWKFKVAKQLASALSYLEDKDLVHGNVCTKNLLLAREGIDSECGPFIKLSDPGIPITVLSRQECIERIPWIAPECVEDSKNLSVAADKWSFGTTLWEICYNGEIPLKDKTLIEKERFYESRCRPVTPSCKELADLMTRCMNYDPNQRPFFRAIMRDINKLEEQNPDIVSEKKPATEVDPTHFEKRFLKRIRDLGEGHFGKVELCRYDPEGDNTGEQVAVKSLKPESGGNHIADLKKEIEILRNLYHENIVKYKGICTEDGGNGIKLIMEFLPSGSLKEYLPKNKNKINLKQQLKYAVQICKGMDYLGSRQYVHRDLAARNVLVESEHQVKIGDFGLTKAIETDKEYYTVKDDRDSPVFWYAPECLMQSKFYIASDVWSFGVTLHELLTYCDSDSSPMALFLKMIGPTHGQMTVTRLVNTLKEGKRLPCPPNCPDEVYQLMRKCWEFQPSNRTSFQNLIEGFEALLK

[6] = molecular target: Non-receptor tyrosine-protein kinase TYK2 (Homo sapiens, UniProt P29597); experiment: Inhibition of GST-fused TYK2 (888 to 1187 residues)(unknown origin) using FITC-Ahr-KKSRGDYMTMQIG-NH2 peptide as substrate incubated for 30 mins in presence of ATP by caliper microfluidic mobility shift assay
Chain of Non-receptor tyrosine-protein kinase TYK2 (P29597 whole entry, the tested form may be a part): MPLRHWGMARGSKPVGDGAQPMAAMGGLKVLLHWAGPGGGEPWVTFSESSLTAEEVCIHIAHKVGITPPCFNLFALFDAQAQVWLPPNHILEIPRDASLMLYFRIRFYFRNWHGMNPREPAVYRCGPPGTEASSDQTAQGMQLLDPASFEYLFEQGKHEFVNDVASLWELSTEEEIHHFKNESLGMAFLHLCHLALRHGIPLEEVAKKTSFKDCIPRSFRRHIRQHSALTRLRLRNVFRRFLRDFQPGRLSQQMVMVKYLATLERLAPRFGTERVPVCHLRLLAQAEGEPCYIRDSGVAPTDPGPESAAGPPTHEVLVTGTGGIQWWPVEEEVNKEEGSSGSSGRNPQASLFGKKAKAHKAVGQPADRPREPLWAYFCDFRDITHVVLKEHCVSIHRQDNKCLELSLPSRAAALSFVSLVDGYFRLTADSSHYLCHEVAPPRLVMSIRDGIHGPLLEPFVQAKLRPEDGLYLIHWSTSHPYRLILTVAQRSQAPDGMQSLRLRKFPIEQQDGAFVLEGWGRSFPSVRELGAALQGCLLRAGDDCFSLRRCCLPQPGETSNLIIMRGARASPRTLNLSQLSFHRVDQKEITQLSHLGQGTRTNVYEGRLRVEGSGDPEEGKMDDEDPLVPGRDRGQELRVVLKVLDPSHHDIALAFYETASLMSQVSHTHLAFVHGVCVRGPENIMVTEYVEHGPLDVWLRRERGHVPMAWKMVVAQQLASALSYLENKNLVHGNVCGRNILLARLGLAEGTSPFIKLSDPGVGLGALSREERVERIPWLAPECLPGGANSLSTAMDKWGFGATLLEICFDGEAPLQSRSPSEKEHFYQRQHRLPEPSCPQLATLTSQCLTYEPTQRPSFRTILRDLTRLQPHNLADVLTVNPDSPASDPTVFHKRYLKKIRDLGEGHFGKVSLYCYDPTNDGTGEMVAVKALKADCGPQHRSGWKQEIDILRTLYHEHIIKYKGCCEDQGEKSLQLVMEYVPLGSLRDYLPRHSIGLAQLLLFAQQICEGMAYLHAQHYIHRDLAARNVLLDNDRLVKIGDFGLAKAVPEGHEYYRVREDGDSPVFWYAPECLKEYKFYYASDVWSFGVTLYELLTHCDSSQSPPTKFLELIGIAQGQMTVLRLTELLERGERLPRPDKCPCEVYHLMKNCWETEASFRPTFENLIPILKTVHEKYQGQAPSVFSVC

JAK2/JAK1 = JAK2/JAK1 (Homo sapiens, UniProt O60674+P23458); experiment: Inhibition of JAK1/2-mediated STAT1 phosphorylation in human M07E cells preincubated for 30 mins followed by IFN-alpha stimulation measured after 15 mins by flow cytometry; assay type: cell-based
Chain of JAK2/JAK1 (P23458 whole entry, the tested form may be a part): as the sequence (P23458 whole entry, the tested form may be a part) above
Chain of JAK2/JAK1 (O60674 whole entry, the tested form may be a part): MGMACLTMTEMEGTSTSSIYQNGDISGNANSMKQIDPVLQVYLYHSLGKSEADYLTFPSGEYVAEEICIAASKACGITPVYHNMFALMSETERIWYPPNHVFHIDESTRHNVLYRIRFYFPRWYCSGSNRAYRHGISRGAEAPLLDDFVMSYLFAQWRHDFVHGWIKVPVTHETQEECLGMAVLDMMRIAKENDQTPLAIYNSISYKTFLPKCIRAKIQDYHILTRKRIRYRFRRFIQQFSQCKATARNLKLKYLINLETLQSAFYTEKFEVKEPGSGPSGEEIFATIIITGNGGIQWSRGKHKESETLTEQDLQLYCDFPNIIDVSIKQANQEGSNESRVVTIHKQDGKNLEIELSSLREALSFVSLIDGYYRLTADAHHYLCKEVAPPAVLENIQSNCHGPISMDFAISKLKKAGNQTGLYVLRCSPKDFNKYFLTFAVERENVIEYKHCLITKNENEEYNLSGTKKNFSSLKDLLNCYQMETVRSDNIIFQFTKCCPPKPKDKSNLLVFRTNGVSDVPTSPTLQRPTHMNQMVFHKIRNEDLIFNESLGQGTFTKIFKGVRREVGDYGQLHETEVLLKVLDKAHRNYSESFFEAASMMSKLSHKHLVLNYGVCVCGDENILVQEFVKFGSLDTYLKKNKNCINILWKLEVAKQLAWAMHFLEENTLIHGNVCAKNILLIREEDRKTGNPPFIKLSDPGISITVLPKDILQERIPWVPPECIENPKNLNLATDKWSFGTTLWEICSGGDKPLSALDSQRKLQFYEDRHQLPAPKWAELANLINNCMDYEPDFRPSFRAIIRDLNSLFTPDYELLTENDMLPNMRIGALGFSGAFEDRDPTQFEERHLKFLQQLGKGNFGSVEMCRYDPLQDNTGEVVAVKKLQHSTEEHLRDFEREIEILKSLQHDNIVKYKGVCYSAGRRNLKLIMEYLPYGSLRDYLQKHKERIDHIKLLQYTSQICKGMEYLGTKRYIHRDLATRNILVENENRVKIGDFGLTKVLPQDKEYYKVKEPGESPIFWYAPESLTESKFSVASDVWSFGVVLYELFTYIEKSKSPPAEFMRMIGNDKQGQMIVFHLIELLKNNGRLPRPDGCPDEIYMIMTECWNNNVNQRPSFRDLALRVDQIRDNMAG

[7] = molecular target: Tyrosine-protein kinase JAK2 (Homo sapiens, UniProt O60674); experiment: Inhibition of GST-fused JAK2 (808 to 1132 residues)(unknown origin) using Carboxyfluorescein-Ahx-GGEEEEYFELVKKKK peptide as substrate incubated for 30 mins in presence of ATP by caliper microfluidic mobility shift assay
Chain of Tyrosine-protein kinase JAK2 (O60674 whole entry, the tested form may be a part): as above

[8] = molecular target: T2, Tyrosine-protein kinase JAK3 (Homo sapiens, UniProt P52333); experiment: Inhibition of GST-fused JAK3 (811 to 1124 residues)(unknown origin) using Carboxyfluorescein-Ahx-GGEEEEYFELVKKKK peptide as substrate incubated for 30 mins in presence of ATP by caliper microfluidic mobility shift assay
T2 sequence (P52333 whole entry): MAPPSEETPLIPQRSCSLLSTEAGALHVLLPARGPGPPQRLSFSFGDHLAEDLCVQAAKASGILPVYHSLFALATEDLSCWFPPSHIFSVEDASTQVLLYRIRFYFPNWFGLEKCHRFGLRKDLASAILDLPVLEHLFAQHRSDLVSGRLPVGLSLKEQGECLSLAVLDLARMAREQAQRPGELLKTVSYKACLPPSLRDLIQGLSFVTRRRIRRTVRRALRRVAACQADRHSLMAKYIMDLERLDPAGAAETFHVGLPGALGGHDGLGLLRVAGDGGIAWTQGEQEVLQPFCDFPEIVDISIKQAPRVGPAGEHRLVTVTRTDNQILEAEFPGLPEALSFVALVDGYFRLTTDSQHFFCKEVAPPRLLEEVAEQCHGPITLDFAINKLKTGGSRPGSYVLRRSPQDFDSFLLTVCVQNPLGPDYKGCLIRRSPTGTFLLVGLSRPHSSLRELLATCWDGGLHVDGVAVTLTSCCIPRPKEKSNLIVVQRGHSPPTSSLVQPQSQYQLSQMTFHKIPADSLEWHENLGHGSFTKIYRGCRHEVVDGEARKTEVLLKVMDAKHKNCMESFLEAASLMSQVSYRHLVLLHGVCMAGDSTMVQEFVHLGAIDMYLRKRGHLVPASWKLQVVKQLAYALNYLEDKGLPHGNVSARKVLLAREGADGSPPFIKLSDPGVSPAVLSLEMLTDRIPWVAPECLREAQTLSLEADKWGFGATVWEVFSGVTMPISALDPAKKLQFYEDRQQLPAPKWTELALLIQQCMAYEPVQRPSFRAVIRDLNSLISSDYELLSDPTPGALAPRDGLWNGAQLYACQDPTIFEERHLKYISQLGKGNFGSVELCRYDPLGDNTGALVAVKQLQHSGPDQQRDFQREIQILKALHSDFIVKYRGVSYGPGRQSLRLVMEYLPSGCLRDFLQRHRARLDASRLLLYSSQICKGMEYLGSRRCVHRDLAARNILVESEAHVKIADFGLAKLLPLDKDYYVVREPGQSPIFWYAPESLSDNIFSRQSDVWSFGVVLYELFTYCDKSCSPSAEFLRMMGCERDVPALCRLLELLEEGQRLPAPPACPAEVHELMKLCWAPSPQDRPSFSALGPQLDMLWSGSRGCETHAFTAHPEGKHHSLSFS

[9] = Saturation solubility of compound in PEG400/transcutol/benzyl alcohol/water mixture using crystalline form of sample; assay type: physicochemical
[10] = Stability of compound under temperature stress assessed as compound degradation at 50 degreeC measured after 7 days using crystalline form of sample; assay type: physicochemical; conditions: time 7 day; read-out: Drug degradation
[11] = Drug penetration in fresh human skin explant using Franz diffusion cell model assessed as concentration of 2-(6-((5-carbamoyl-4-((2-methoxyphenyl)amino)pyridin-2-yl)amino)pyridin-3-yl)acetic acid metabolite in receiver fluid at 3 % administered topically preincubated overnight followed by fresh media replacement in receiver fluid without compound and subsequently stimulated with IL-4/IL-13 measured after 24 hrs by LC-MS/MS analysis; assay type: ADME, tissue-based, Skin of body; conditions: topical_or_ocular
[12] = Permeability of compound; assay type: ADME; conditions: not told; read-out: permeability
[13] = Thermodynamic solubility of the compound at pH 6.8 using crystalline form of sample; assay type: physicochemical; conditions: read-out: Therm_solubility
[14] = Stability of compound under light stress assessed as compound decomposition under sunlight with intensity of 4000 KJ/m2, irradiation of 250 W/m2, wavelength of >290 nm, temperature of 37 degreeC for 4 hrs using crystalline form of sample; assay type: ADME; conditions: read-out: Drug degradation
[15] = Stability in human whole blood assessed as half life at 1 uM incubated upto 8 hrs by LC-MS/MS analysis; assay type: ADME, tissue-based
[16] = Stability of compound in fresh human skin explant using Franz diffusion cell model assessed as compound concentration in dermis at 3 % administered topically preincubated overnight followed by fresh media replacement in receiver fluid without compound and subsequently stimulated with IL-4/IL-13 measured after 40 hrs by LC-MS/MS analysis; assay type: ADME, tissue-based, Skin of body; conditions: topical or ocular, read-out: Ct
[17] = Saturation solubility of compound in PEG400/transcutol/benzyl alcohol/water mixture using amorphous form of sample; assay type: physicochemical
[18] = Stability of compound under temperature stress assessed as compound degradation at 50 degreeC measured after 7 days using amorphous form of sample; assay type: physicochemical; conditions: time 7 day; read-out: Drug degradation
[19] = Solubility of the compound at pH 6.8 using amorphous form of sample; assay type: physicochemical; conditions: buffer

T1 sequence (P23458 whole entry, one chain of several): as the sequence (P23458 whole entry, the tested form may be a part) above

SMILES	IC50 (JAK3/JAK1 [1]) [nM]	IC50 (JAK3/JAK1 [2]) [nM]	half-life [3] [min]	logD [4]	IC50 [5] [nM]	IC50 [6] [nM]	IC50 (JAK2/JAK1) [nM]	IC50 [7] [nM]	IC50 [8] [nM]	solubility thermodynamic [9] [µg/mL]	degraded at 168 h [10] [%]	Drug uptake [11] [µM]	Papp [12] [×10⁻⁶ cm/s]	solubility thermodynamic [13] [µg/mL]	degraded at 4 h [14] [%]	half-life at 1 µM [15] [min]	concentration at 40 h, 3 % [16] [µM]	solubility thermodynamic [17] [µg/mL]	degraded at 168 h [18] [%]	solubility [19] [µg/mL]
COCCOC(=O)Cc1ccc(Nc2cc(Nc3ccccc3OC)c(C(N)=O)cn2)nc1	63	> 30000	5	2.9	6	2	14	6	4											
COc1ccccc1Nc1cc(Nc2ccc(CC(=O)O[C@H]3CCOC3)cn2)ncc1C(N)=O	89	16000	39	3	5	2	44	5	5	> 18000	2.4	0.124	20	31 (≈ 66.9 µM)	3.3	5	54			
CCOC(=O)COc1ccc(Nc2cc(Nc3ccccc3Cl)c(C(N)=O)cn2)nc1	141	7530	4		69	54	185	76	69											
CCOC(=O)CCc1ccc(Nc2cc(Nc3ccccc3Cl)c(C(N)=O)cn2)nc1	171	2500	8		27	37	185	25	25											
CCOC(=O)Cc1ccc(Nc2cc(Nc3ccccc3Cl)c(C(N)=O)cn2)nc1	24	12200	14	4.6	20		60	17	18				11			7		8700 (≈ 20400 µM)	1	0.1 (≈ 0.235 µM)
NC(=O)c1cnc(Nc2ccc(CC(=O)O)cn2)cc1Nc1ccccc1Cl	2580	> 50000	< 240	0.4	9	10	3860	19	10				0.9			> 240				
COC[C@H](C)OC(=O)Cc1ccc(Nc2cc(Nc3ccccc3OC)c(C(N)=O)cn2)nc1	115	> 50000	12		1		58	2	1											
NC(=O)c1cnc(Nc2cccc(O)n2)cc1Nc1ccccc1Cl			> 200				> 10000									> 60				
CCOC(=O)c1ccc(Nc2cc(Nc3ccccc3Cl)c(C(N)=O)cn2)nc1	189	10300			120		288	110	170											
COc1ccccc1Nc1cc(Nc2ccc(CC(=O)O[C@@H]3CCOC3)cn2)ncc1C(N)=O	67	> 50000	8		3	2	48	4	3											
CC(C)OC(=O)Cc1ccc(Nc2cc(Nc3ccccc3Cl)c(C(N)=O)cn2)nc1	71	1200	67		29		115	27	28							65				
CCOC(=O)Cc1ccc(Nc2cc(Nc3ccccc3OC)c(C(N)=O)cn2)nc1	80	10200	12	2.9	19	21	58	26	56	≥ 9000	2		28	1 (≈ 2.37 µM)	0	5				

Reference: ChEMBL document CHEMBL5370660, “Design of a Supersoft Topical JAK Inhibitor, Which Is Effective in Human Skin but Rapidly Deactivated in Blood” (J Med Chem, 2023)
